For 21 molecules, TGI and GI50 results are on record in PubChem BioAssay (NCI).

Where “and” joins values, the source holds several entries; their conditions need not be identical. Equal entries are not always repeated.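 How tested: cells in 96-well plates exposed to compound for 48 hours at five concentrations. GI50: concentration for 50% inhibition of growth. TGI is the concentration that stops growth completely.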 Some results are limits rather than exact numbers.

What all share (assay): NCI anticancer screen, dose series, 48 h
For assay [1], the system named is RXF 393 renal.
Assay [2] relates to SF-539 CNS.
The test system of assay [3] is NCI-H226 lung.
Assay [4] deals with CAKI-1 renal.
Assay [5] has as its system U251 CNS.
The test system of assay [6] is HCC-2998 colon.
The subject of assay [7] is SNB-75 CNS.
Assay [8] has as its system HOP-92 NSCLC.
The subject of assay [9] is A549 NSCLC.
Assay [10] relates to MALME-3M melanoma.

As for `COc1ccccc1NC(=O)C(CC(C(=O)Nc1ccccc1OC)/C(C)=N/Nc1ccc([N+](=O)[O-])cc1[N+](=O)[O-])/C(C)=N/Nc1ccc([N+](=O)[O-])cc1[N+](=O)[O-]` (configuration not stated), the TGI in assay [1], in assay [2], in [3], in assay [4], in assay [5] and in assay [6] was above 100 µM in each case. The TGI in [7], in assay [8], in assay [9] and in assay [10] was above 100 µM each time.

`COc1ccc(CCN2CCc3c(C)c(C#N)c4nc5ccccc5n4c32)cc1OC`: the TGI in assay [1] was above 100 µM; in assay [2], above 100 µM; in assay [3] it was 93.7 µM; in assay [4], above 100 µM; in assay [5] it was above 100 µM; in assay [6], above 100 µM. In addition, the TGI in assay [7] is 88.7 µM; in [8], 90.6 µM; in [9] it was above 100 µM; in assay [10], 99.8 µM.

Turning to `CC(=O)N(Cc1ccccc1)c1ccccc1I(=O)=O`, the GI50 in assay [1] was above 100 µM; in assay [2], above 100 µM; in assay [3], above 100 µM; in assay [4], 42.2 µM; in assay [5], 34.5 µM; in assay [6] it was 99.3 µM. In addition, the GI50 was 50.9 µM in assay [7], 13.3 µM in [8], 55.6 µM in assay [9] and 19.3 µM in [10]. In addition, the TGI in assay [1], in assay [2], in assay [3], in assay [4], in assay [5] and in assay [6] was above 100 µM throughout. The TGI is above 100 µM in [7], 67.5 µM in assay [8], above 100 µM in [9] and above 100 µM in assay [10].

As to `Cc1cc(Cl)ccc1Nc1nc(C(F)(F)F)ccc1C(=O)N1CCN(c2cccc(Cl)c2)CC1`, the GI50 in assay [1] is above 100 µM; in assay [2], above 100 µM; in [3] it was above 100 µM; in [4], 90.7 µM; in assay [5], above 100 µM; in assay [6] it was 49.3 µM. The GI50 is 1.11 µM in assay [7], 73.4 µM in assay [8], above 100 µM in assay [9] and above 100 µM in assay [10]. The TGI in assay [1], in assay [2], in assay [3], in assay [4], in assay [5] and in assay [6] was above 100 µM in each case. Besides, the TGI is 87.5 µM in assay [7], above 100 µM in [8], above 100 µM in assay [9] and above 100 µM in [10].

In the case of `O=c1[nH]c2ccccc2n1-c1n[nH]c2ccccc12`, the GI50 was 43.6 µM in assay [1]; 56.9 µM in assay [2]; 18.9 µM in assay [3]; 25.3 µM in [4]; 31.3 µM in assay [5]; 31.9 µM in assay [6]. Moreover, the GI50 was 41.9 µM in assay [7], 4.5 µM in [8], 30.8 µM in [9] and 26.3 µM in assay [10]. The TGI in assay [1] is above 100 µM; in assay [2], above 100 µM; in assay [3], 55.4 µM; in [4], above 100 µM; in assay [5], above 100 µM; in assay [6], above 100 µM. Besides, the TGI in assay [7] is above 100 µM; in [8], 58.2 µM; in assay [9], above 100 µM; in [10] it was 82.9 µM.

For `N#CC1C=Cc2ccccc2N1C(=O)Oc1ccccc1` (configuration not stated), the TGI in assay [1], in assay [2], in assay [3], in [4], in [5] and in [6] was above 100 µM throughout. The TGI in [7], in assay [8], in assay [9] and in [10] was above 100 µM throughout.

With `Nc1ccc(S(=O)(=O)Nc2cnc3c(Cl)cccc3n2)cc1`, the GI50 in assay [1] was 9.52 µM; in assay [2], above 94.6 µM; in assay [3] it was above 75.6 µM; in [4], 99.2 µM; in assay [5], 68 µM; in assay [6] it was 149 µM. The GI50 in [7] was 51.6 µM. The TGI in [1] was > 31.6 µM and 460 µM; in assay [2] it was 513 µM; in assay [3], above 750 µM; in assay [4], above 698 µM; in assay [5] it was above 750 µM; in [6], above 663 µM. Further, the TGI in assay [7] was > 95 µM and 682 µM; in [8], 544 µM; in [9], above 750 µM; in assay [10], above 750 µM.

As to `CCC1CNC(=O)CC1CC(=O)OC` (configuration not stated), the TGI in assay [1], in assay [3], in [4], in assay [5], in [6] and in assay [7] was above 100 µM each time. Further, the TGI in assay [8], in assay [9] and in assay [10] was above 100 µM each time.

Consider `CC1COCC(C)N1C1=C(Cl)C(=O)c2ccccc2C1=O` (configuration not stated), for which the GI50 is 1.9 µM in [1]; 14.3 µM in assay [2]; 15.1 µM in assay [3]; 1.56 µM in assay [4]; 11.6 µM in [5]; 17.2 µM in assay [6]. Moreover, the GI50 was 10.7 µM in [7], 0.554 µM in [8], 17 µM in assay [9] and 1.5 µM in [10]. In addition, the TGI came out at 4.22 µM in assay [1]; 28.1 µM in assay [2]; 31.2 µM in assay [3]; 2.97 µM in assay [4]; 25.7 µM in assay [5]; 31.1 µM in assay [6]. The TGI stood at 23.2 µM in assay [7], 2.06 µM in assay [8], 32.2 µM in assay [9] and 2.97 µM in [10].

On to `COc1cccc(/C=C/C(=O)c2cc3c(N)c(C(=O)Nc4cccc5ccccc45)sc3nc2C)c1`, for which the GI50 in assay [1] was 0.803 µM; in assay [2], 1.17 µM; in assay [3], 1.2 µM; in [4], 1.6 µM; in assay [5], 0.97 µM; in [6] it was 1.14 µM. Besides, the GI50 was 1.02 µM in assay [7], 0.953 µM in assay [8], 1.46 µM in [9] and 1.96 µM in assay [10]. Moreover, the TGI in assay [1] was 1.9 µM; in [2], 2.8 µM; in assay [3], 3.27 µM; in assay [4], 6.34 µM; in [5] it was 2.06 µM; in assay [6] it was 2.79 µM. Also, the TGI in [7] was 3.15 µM; in assay [8], 4.9 µM; in [9] it was above 50 µM; in assay [10], above 50 µM.

Turning to `CNC(=O)CN(CC(N)=O)C(N)=O`, the TGI in assay [1], in [2], in assay [3], in assay [4], in assay [5] and in assay [6] was above 100 µM each time. The TGI in assay [7], in [8], in [9] and in assay [10] was above 100 µM in each case.

With `C=[CH][Sn]([CH]=C)([O]c1cccc2cccnc12)[O]c1cccc2cccnc12`, the GI50 in [1] is 0.28 µM; in [2], 2.85 µM; in [3], 2.95 µM; in [4], 6.73 µM; in [5], 2.58 µM; in [6] it was 4.44 µM. The GI50 in assay [7] is 3.95 µM; in [8], 6.52 µM; in [9] it was 3.37 µM; in [10] it was 3.35 µM. For the same molecule, the TGI in assay [1] is 1.21 µM; in assay [2] it was 9.27 µM; in assay [3], 9.47 µM; in [4], 22.8 µM; in assay [5], 6.67 µM; in [6], 8.85 µM. The TGI in assay [7] came to 14 µM; in [8], 19.5 µM; in assay [9] it was 13.9 µM; in assay [10], 10.3 µM.

In the case of `CC1CCC2N(C1)CC1C3(O)CC45OC6(O)C(O)CCC4(C)C6CCC5C3(O)CC(O)C1(O)C2(C)O` (configuration not stated), the TGI in assay [1], in [2], in assay [3], in [4], in assay [5] and in [6] was above 100 µM each time. The TGI in assay [7], in [8], in assay [9] and in assay [10] was above 100 µM throughout.

With `O=C(NCCCCCCCNC(=O)OCc1ccc2c(Cl)cc(Cl)c(O)c2n1)OCc1ccc2c(Cl)cc(Cl)c(O)c2n1`, the GI50 was 0.812 µM in assay [1]; 0.414 µM in [2]; 0.557 µM in [3]; 0.378 µM in assay [4]; 1.6 µM in assay [5]; 1.65 µM in [6]. Moreover, the GI50 in assay [7] is 0.905 µM; in assay [8], 1.07 µM; in [9], 1.85 µM; in assay [10] it was 1.2 µM. Also, the TGI in assay [1] is 2.13 µM; in [2] it was 1.48 µM; in assay [3], 1.59 µM; in assay [4], 1.55 µM; in assay [5], 3.09 µM; in assay [6], 3.14 µM. For the same molecule, the TGI in assay [7] is 2.43 µM; in assay [8] it was 2.71 µM; in assay [9], 3.76 µM; in assay [10] it was 2.53 µM.

As to `CO[C@@]12[C@@H]3NC3CN1C1=C(C(=O)C(N)=C(C)C1=O)[C@@H]2COC(N)=O` (some centres not stated), the GI50 in [1] was 1.27 µM; in [3] it was 0.504 µM; in assay [6], 0.46 µM; in [8], 1.44 µM; in assay [10], 0.511 µM. Besides, the TGI in assay [1] was found to be 4.16 µM; in assay [3], 2.78 µM; in assay [4], 2.08 µM; in assay [6] it was 2.02 µM; in assay [8], 5.73 µM; in assay [9], 3.62 µM. Further, the TGI in [10] stood at 2.21 µM.

Take `CN(C=O)/C=C/c1cc(O)ccc1O`: the TGI in assay [1] is 34.1 µM; in assay [2], above 65.4 µM; in [3], above 78.7 µM; in [4] it was 38.9 µM; in assay [5] it was above 69.7 µM; in [6] it was above 100 µM. The TGI in assay [7] was above 59 µM; in assay [8] it was 34.8 µM; in [9] it was above 100 µM; in assay [10], above 63.3 µM.

For the molecule `O=C1CN(/N=C/c2ccc(-c3ccc(F)cc3)o2)C(=O)N1`, the TGI in [1] is above 100 µM; in [2] it was above 100 µM; in assay [3] it was 88.5 µM; in assay [4], above 100 µM; in [5], above 100 µM; in assay [6] it was above 100 µM. The values for the TGI in [8], in [9] and in assay [10] were 57.8 µM, above 100 µM and above 100 µM, respectively.

On to `CCCCCCCCCCCCCCCCOC(=O)c1cc(O)cc(C(=O)OCCCCCCCCCCCCCCCC)c1`, for which the TGI in assay [1], in assay [3], in assay [4], in [5], in assay [6] and in assay [7] was above 100 µM each time. Besides, the TGI in assay [8], in assay [9] and in assay [10] was above 100 µM each time.

Take `CCSC(SCC)=C1C(=O)N(c2ccccc2)N=C1C`: the TGI in assay [1] worked out at 5.89 µM; in [3], 29.9 µM; in assay [4] it was 15.8 µM; in assay [6], 27.6 µM; in assay [7], 43.9 µM; in assay [8], 20.1 µM. The results for the TGI in assay [9] and in [10] were 35.1 µM and 28.3 µM, respectively.

Consider `CCN(CC)CCN(C(=O)C(C)(C)C)c1ccccc1N`, for which the TGI in assay [1], in assay [2], in [3], in assay [4], in [5] and in assay [7] was above 100 µM in each case. Also, the TGI in [8], in assay [9] and in assay [10] was above 100 µM each time.

As to `CC(NC(=O)c1ccccc1)(C(=O)O)C(=O)O`, the TGI in [1], in [2], in assay [3], in assay [4], in [5] and in assay [7] was above 100 µM throughout. For the same molecule, the TGI in [8], in assay [9] and in [10] was above 100 µM in each case.
